Like-named read-outs stand apart in the source and are kept apart here.
How the values were obtained:
[1] = test system: human PBMCs activated with Poly r(I:C); test: cells; type: cell-based; conditions: for EC50: read-out: EC50 for reduction of cytokine release (TNFalpha production) from human PBMCs
[2] = test system: Influenza A/Duck/MN/1525/81 (H5N1); set-up: species or system mice; conditions: mouse, in vivo
[3] = test system: Influenza A/Duck/MN/1525/81 (H5N1); set-up: species or system mice; conditions: mouse, in vivo; remark: listed apart in the source
[4] = test system: Influenza A/Duck/MN/1525/81 (H5N1); set-up: species or system mice; conditions: mouse, in vivo; remark: listed apart in the source
[5] = test system: Influenza A/Duck/MN/1525/81 (H5N1); set-up: species or system mice; conditions: mouse, in vivo; remark: listed apart in the source
[6] = test system: Influenza A/Duck/MN/1525/81 (H5N1); set-up: species or system mice; conditions: mouse, in vivo; remark: listed apart in the source

## CC#CCC(C)C(O)C=CC1C(O)CC2Oc3c(CCCC(=O)[O-])cccc3C21.[Na+] (centres unmarked) [Beraprost, 2,3,3a,8b-tetrahydro-2-hydroxyl-1-(3-hydroxyl-4-methyl-1-octen-6-ynyl)-1H-cyclopenta[b]benzofuran-5-butanoic acid, sodium salt]
[1]; Homo sapiens, PBMC, 18 h
  EC50: 11 nM
[2]
  MDD (mean day of death): 11.5
  Survival: 3/10
[3]
  Average % loss (animal weight loss as percent of initial weight): 76%
[4]
  Lung score, Mean: 2.0
  Lung weight, Mean: 0.24 grams
[5]
  Mean number of cells (lung): 2.63
[6]
  Lung cytokine concentration, CCL2 Average: 1308 pg/mL
  Lung cytokine concentration, IFNg Average: 1601 pg/mL
  Lung cytokine concentration, IL-6 Average: 604 pg/mL
  Lung cytokine concentration, IL-10 Average: 621 pg/mL
  Lung cytokine concentration, IL-12 Ave: 3517 pg/mL

## CC#CCC(C)C(O)C=CC1C(O)CC2Oc3c(CCCC(=O)O)cccc3C21 (single isomer, unassigned; isomer d) [Isomer D]
[1]
  EC50 for reduction of cytokine release (TNFalpha production) from human PBMCs: No
[2]
  MDD (mean day of death): 7
  Survival: 0/10
[3]
  Average % loss (animal weight loss as percent of initial weight): 68%
[4]
  Lung score, Mean: 3.50
  Lung weight, Mean: 0.37 grams
[6]
  Lung cytokine concentration, CCL2 Average: 2347 pg/mL
  Lung cytokine concentration, IFNg Average: 2074 pg/mL
  Lung cytokine concentration, IL-6 Average: 1291 pg/mL
  Lung cytokine concentration, IL-10 Average: 758 pg/mL
  Lung cytokine concentration, IL-12 Ave: 2603 pg/mL

## CC#CC[C@H](C)[C@H](O)/C=C/[C@@H]1[C@H]2c3cccc(CCCC(=O)[O-])c3O[C@H]2C[C@H]1O.[Na+] (single isomer, unassigned; isomer a) [Isomer A]
[1]
  EC50: 4 nM
[2]
  MDD (mean day of death): 13
  Survival: 4/10
[3]
  Average % loss (animal weight loss as percent of initial weight): 76%
[4]
  Lung score, Mean: 2.00
  Lung weight, Mean: 0.22 grams
[5]
  Mean number of cells (lung): 1.15
[6]
  Lung cytokine concentration, CCL2 Average: 953 pg/mL
  Lung cytokine concentration, IFNg Average: 1046 pg/mL
  Lung cytokine concentration, IL-6 Average: 521 pg/mL
  Lung cytokine concentration, IL-10 Average: 223 pg/mL
  Lung cytokine concentration, IL-12 Ave: 3800 pg/mL
